Patent publication US5593966A, “Peptide derivatives of cytochrome b558 and their use as medicaments” (The United States of America as represented by the …, priority 1990, dated 1997)
Where a SMILES comes first, the peptide text is derived from it.

What was measured:
NADPH oxidase [1] = molecular target: T1, NADPH oxidase (Homo sapiens, UniProt P14598); assay: Cell-free NADPH oxidase assay (arachidonate-stimulated O2 generation, neutrophil membrane plus cytosol); type: biochemical; conditions: for Mean inhibition vs. buffer control (n), Cell-free assay: 100 μM synthetic peptide, arachidonate-stimulated O2 production, mean of n experiments in duplicate
T1 construct: Neutrophils were electropermeabilized as described; endogenous in cells; host or cells: electropermeabilized peripheral blood neutrophils (PMN), stimulated with PMA or fMLP
T1 sequence (P14598 1-390): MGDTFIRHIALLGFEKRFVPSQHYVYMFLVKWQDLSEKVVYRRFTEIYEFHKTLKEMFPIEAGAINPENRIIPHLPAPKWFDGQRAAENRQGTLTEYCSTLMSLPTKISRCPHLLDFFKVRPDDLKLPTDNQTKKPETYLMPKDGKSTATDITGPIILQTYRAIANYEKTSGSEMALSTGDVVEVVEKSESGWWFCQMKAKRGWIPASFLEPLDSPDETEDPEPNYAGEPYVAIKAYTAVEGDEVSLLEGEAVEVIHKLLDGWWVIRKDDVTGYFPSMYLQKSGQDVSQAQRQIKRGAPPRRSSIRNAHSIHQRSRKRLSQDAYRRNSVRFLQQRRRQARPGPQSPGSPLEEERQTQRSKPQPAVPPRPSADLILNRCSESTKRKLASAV
Procedure: Neutrophils were isolated from peripheral blood and cytosol and membrane fractions were prepared by differential centrifugation as previously described (Nunoi et al, Science, 242, 1298-1301 (1988)). Typical yields of cytosol and membrane proteins obtained were 2.8±0.1 mg/10^8 cell equivalents and 1.5±0.1 μg/10^6 cell equivalents, respectively (mean±SD, 3 separate preparations). The cell-free assay of O2 generation was modified as follows: wells contained 2.5-5.0×10^5cell equivalents neutrophil membrane, 10^6 cell equivalents neutrophil cytosol in a final volume of 100 μl reaction mixture (150 μM acetylated ferricytochrome c (11), 4 mM MgCl2, 10 μM FAD, 1 mM EGTA, 200 μM NADPH, 40 μM arachidonic acid, 10 μM GTPγ S, ±25 μg/ml superoxide dismutase in 75 mM potassium phosphate, pH 7.0). Because membrane preparations varied in activity, the amount of membrane added per well was adjusted to yield an arachidonate-stimulated O2 production of ≈0.4 nmol/min/well in the absence of synthetic peptide. The maximal linear rate of superoxide dismutase-inhibitable acetylferricytochrome c reduction (ΔO.D. […]) was converted to nmol O2 generated/min using an instrument-corrected extinction coefficient derived empirically as described (Leslie, J. Immunol. Methods, 103, 253-259 (1987)). To measure oxidase inhibition by antibodies directed against the 91 kDa subunit of cytochrome b558 membranes were solubilized in 1% deoxycholate, incubated for 30 min on ice with an equal volume of serum at various dilutions. Diluting these samples 10-fold with H2 O lowered the detergent concentration below the CMC and allowed sedimentation (130,000 g×30 min) of an oxidase-competent membrane fraction. This fraction was resolubilized in deoxycholate, and assayed for arachidonate-stimulatedO2 generation in the presence of cytosol.
In Table 1 above, the cell-free assay of O2 generation contained 2.5-5.0×10^5 cell equivalents of neutrophil (PMN) membrane, 10^6 cell equivalents PMN cytosol in a final volume of 100 μl reaction mixture. Because membrane preparations varied in activity, the amount of membrane added per well was adjusted to yield an arachidonate-stimulated O2 production of ≈0.4 nmol/min/well in the absence of synthetic peptide. Data represent the mean percent inhibition obtained in n experiments (each performed in duplicate) in the presence of 100 μM synthetic peptide compared to a simultaneous buffer control.

NADPH oxidase [2] = molecular target: T1, NADPH oxidase; assay: Permeabilized cell NADPH oxidase assay (electropermeabilized neutrophils stimulated with PMA or fMLP); type: cell-based; conditions: for Mean inhibition vs. buffer control (n), Electropermeabilized cell, PMA: PMA 10 ng/ml; for Mean inhibition vs. buffer control (n), Electropermeabilized cell, PMA / Mean inhibition vs. buffer control (n), Electropermeabilized cell, FMLP: preincubation with 800 μM peptide, assay with 200 μM peptide; for Mean inhibition vs. buffer control (n), Electropermeabilized cell, FMLP: fMLP 10 μM
Procedure: Neutrophils were electropermeabilized as described (Grinstein et al, J. Biol. Chem., 263, 1779-1783 (1988)), incubated on ice for 30 min in permeabilization buffer (140 mM KCl, 1 mM MgCl2, 1 mM EGTA, 0.193 mM CaCl2, 1 mM ATP, 2 mM NADPH, 10 μM GTP, 10 mM glucose, 10 mM HEPES-N-methylglucamine, pH 7) supplemented with synthetic peptide (800 μM). The cells were resuspended at 5×10^6 /ml in the same buffer containing 200 μM synthetic peptide, 150 μM acetylferricytochrome c, catalase (2500 U/ml), ±25 μg/ml superoxide dismutase. Wells containing 5×10^5 cells were stimulated with PMA (10 ng/ml) or fMLP (10 μM) and O2^-- production was determined as above.
Electropermeabilized PMN were incubated on ice in permeabilization buffer supplemented with synthetic peptide (800 μM). The cells were resuspended at 5×10^6 /ml in the same buffer containing 200 μM synthetic peptide. Wells containing 5×10^5 cells were stimulated with PMA (10 ng/ml) or fMLP (10 μM) and O2 production was determined as described in "Experimental Procedures". […] Electropermeabilized PMN sham incubated without synthetic peptides and stimulated with […] or fMLP generated 8.4±1.1 nmol O2 /min/10^6 cells and 8.9±1.7 nmol O2 /min/10^6 cells, respectively (mean±SEM, 5 independent experiments).

[3] = molecular target: T2, 47 kDa cytosolic oxidase factor (Homo sapiens, UniProt P14598); assay: 47 kDa cytosolic protein phosphorylation in the cell-free reaction (immunoprecipitation, SDS-PAGE, autoradiography); type: biochemical; conditions: densitometry of autoradiograms; 3 independent experiments; read-out: Half-maximal inhibitory concentration, 47 kDa protein phosphorylation
T2 construct: endogenous in cells; host or cells: neutrophil cytosol, with neutrophil membrane, in the cell-free reaction
T2 sequence (P14598 1-390): T1 sequence (P14598 1-390)
Procedure: Components of the cell-free phosphorylation reaction were identical to those for arachidonate-stimulated O2^- generation except for omission of acetylferricytochrome c and inclusion of γ-[^32 P]ATP (0.1 μCi/ml, sp. act. 5000 Ci/mmol). Twenty min after addition of arachidonate, aliquots of the cell-free reaction mixture were mixed with an equal volume of iced "stopping" buffer (150 mM NaCl, 10 mM EDTA, 1% deoxycholate, 1% NP-40, 50 mMNaF, 1 mMNa vanadate, 10 mM Tris, pH 7.4). Proteins bound to rabbit antibodies raised against recombinant 47 kDa protein (Lomax et al, Science, 245, 409-412 (1989)), were precipitated with protein G-sepharose (Harlow et al, Antibodies: A Laboratory Manual (Cold Spring Harbor Laboratory), 465-468 (1988)) and analyzed by SDS-PAGE and autoradiography with intensifying screens.
After stimulation of the neutrophil respiratory burst with phorbol esters the 47 kDa cytosolic oxidase factor is multiply phosphorylated and associates with plasma membrane. […] The immunoprecipitated proteins were analyzed by SDS-PAGE and autoradiography as described above. […] The half-maximal inhibitory concentration of 91 kDa cytochrome b558 carboxyterminal peptide determined by densitometry of autoradiograms was in the range of 25-50 μM in each of 3 independent experiments.

Row | Molecule | Mean inhibition vs. buffer control (n), Cell-free assay (NADPH oxidase [1]) [%] | Mean inhibition vs. buffer control (n), Electropermeabilized cell, PMA (NADPH oxidase [2]) [%] | Mean inhibition vs. buffer control (n), Electropermeabilized cell, FMLP (NADPH oxidase [2]) [%] | Inhibition of O2 production by electropermeabilized neutrophils (in words) (NADPH oxidase [2]; stimulated with fMLP or PMA) | IC50 (NADPH oxidase [1]; peptide and arachidonate added simultaneously, 5 experiments, IC50 by interpolation, read-out: Mean IC50 ±SEM, inhibition of NADPH oxidase activation) [µM] | IC50 [3] [µM]
1 | RGVHFIFNKENF [Residues 559-570 of the 91 kDa subunit of cytochrome b558] | 93 | 61 | 67 | inhibited |  | 
2 | NC(N)=NCCC[C@H](NC(=O)[C@H](Cc1ccccc1)NC(=O)[C@@H]1CCCN1C(=O)[C@H](CO)NC(=O)[C@H](Cc1ccccc1)NC(=O)CNC(=O)[C@@H]1CCCN1C(=O)[C@@H]1CCCN1C(=O)[C@@H](N)CCCN=C(N)N)C(=O)O [Bradykinin] (H-RPPGFSPFR-OH) | -8 | -8 | -6 |  |  | 
3 | CC[C@H](C)[C@H](NC(=O)[C@H](Cc1ccccc1)NC(=O)[C@H](Cc1c[nH]cn1)NC(=O)[C@@H](NC(=O)CNC(=O)[C@@H](N)CCCNC(=N)N)C(C)C)C(=O)N[C@@H](Cc1ccccc1)C(=O)O [RGVHFIF, Arg--Gly--Val--His--Phe--Ile--Phe] (H-RGVHFIF-OH) | 97 | 72 | 73 |  |  | 
4 | CC(C)[C@H](NC(=O)[C@H](C)NC(=O)[C@H](Cc1c[nH]c2ccccc12)NC(=O)[C@H](CC(N)=O)NC(=O)CN)C(=O)N[C@@H](CC(N)=O)C(=O)N[C@@H](CCC(=O)O)C(=O)NCC(=O)N[C@@H](CS)C(=O)O [GNWAVNEGC] (H-GNWAVNEGC-OH) | -17 |  |  |  |  | 
5 | CC[C@H](C)[C@H](NC(=O)[C@@H](NC(=O)[C@H](C)NC(=O)[C@H](CCC(N)=O)NC(=O)[C@H](Cc1ccccc1)NC(=O)CNC(=O)[C@H](C)NC(=O)[C@H](Cc1c[nH]cn1)NC(=O)[C@H](C)NC(=O)[C@H](CCCNC(=N)N)NC(=O)[C@H](CCCCN)NC(=O)[C@@H](N)CCCNC(=N)N)[C@@H](C)O)C(=O)O [RKRAHAGFQATI] (H-RKRAHAGFQATI-OH) | -5 | -11 | -28 |  |  | 
6 | CC[C@H](C)[C@H](NC(=O)[C@H](Cc1ccccc1)NC(=O)[C@H](Cc1c[nH]cn1)NC(=O)[C@@H](NC(=O)CNC(=O)[C@H](CCCNC(=N)N)NC(=O)[C@@H]1CCCN1C(=O)CNC(=O)[C@H](CO)NC(=O)[C@H](CCC(=O)O)NC(=O)[C@H](CO)NC(=O)[C@H](CC(N)=O)NC(=O)[C@H](CO)NC(=O)[C@@H](N)CS)C(C)C)C(=O)N[C@@H](Cc1ccccc1)C(=O)N[C@@H](CC(N)=O)C(=O)N[C@@H](CCCCN)C(=O)N[C@@H](CCC(=O)O)C(=O)N[C@@H](CC(N)=O)C(=O)N[C@@H](Cc1ccccc1)C(=O)O (H-CSNSESGPRGVHFIFNKENF-OH) |  |  |  |  | 32 ± 2 | 25 to 50
7 | CC(C)C[C@H](NC(=O)[C@@H](N)Cc1c[nH]cn1)C(=O)N[C@@H](Cc1ccccc1)C(=O)N[C@@H](CC(N)=O)C(=O)N[C@H](C(=O)N[C@@H](CCC(=O)O)C(=O)N[C@@H](Cc1c[nH]c2ccccc12)C(=O)N[C@@H](CS)C(=O)O)C(C)C [HLFNVEWC] (H-HLFNVEWC-OH) | -17 | -6 | 6 |  |  | 

Further lines, results first:

Row | Mean inhibition vs. buffer control (n), Cell-free assay (NADPH oxidase [1]) [%] | Mean inhibition vs. buffer control (n), Electropermeabilized cell, PMA (NADPH oxidase [2]) [%] | Mean inhibition vs. buffer control (n), Electropermeabilized cell, FMLP (NADPH oxidase [2]) [%] | Inhibition of O2 production by electropermeabilized neutrophils (in words) (NADPH oxidase [2]; stimulated with fMLP or PMA) | IC50 (NADPH oxidase [1]; peptide and arachidonate added simultaneously, 5 experiments, IC50 by interpolation, read-out: Mean IC50 ±SEM, inhibition of NADPH oxidase activation) [µM] | IC50 [3] [µM] | Molecule
8 | 10 | 3 | -5 |  |  |  | CSCC[C@H](NC(=O)[C@H](CO)NC(=O)[C@H](Cc1ccccc1)NC(=O)[C@@H](N)C(C)C)C(=O)N[C@@H](Cc1ccccc1)C(=O)N[C@@H](CCC(N)=O)C(=O)NCC(=O)N[C@@H](CCC(=O)O)C(=O)N[C@@H](CCC(=O)O)C(=O)N[C@@H](CO)C(=O)O [VFSMFQGEES] (H-VFSMFQGEES-OH)
9 | -8 | -1 | 2 |  |  |  | NC(=O)C[C@H](NC(=O)[C@@H](N)CO)C(=O)N[C@@H](CO)C(=O)N[C@@H](CCC(=O)O)C(=O)N[C@@H](CO)C(=O)NCC(=O)N1CCC[C@H]1C(=O)O [SNSESGP] (H-SNSESGP-OH)
10 | 96 |  |  |  |  |  | CC[C@H](C)[C@H](NC(=O)[C@H](Cc1ccccc1)NC(=O)[C@H](Cc1c[nH]cn1)NC(=O)[C@@H](NC(=O)CNC(=O)[C@H](CCCNC(=N)N)NC(=O)[C@@H]1CCCN1C(=O)CNC(=O)[C@H](CO)NC(=O)[C@H](CCC(=O)O)NC(=O)[C@H](CO)NC(=O)[C@H](CC(N)=O)NC(=O)[C@@H](N)CO)C(C)C)C(=O)N[C@@H](Cc1ccccc1)C(=O)N[C@@H](CC(N)=O)C(=O)N[C@@H](CCCCN)C(=O)N[C@@H](CCC(=O)O)C(=O)N[C@@H](CC(N)=O)C(=O)N[C@@H](Cc1ccccc1)C(=O)O [SNSESGPRGVHFIFNKENF] (H-SNSESGPRGVHFIFNKENF-OH)
